{
  "source": "patent US11958868B2",
  "about": "“Methods of using metal complexes to promote wound healing” (University of Macau, priority 2022, dated 2024)",
  "key": {"[1]": {"target": "T1, PHD2 (Homo sapiens, UniProt Q9GZT9)", "T1 construct": "detected by Western blotting using either VHL or PHD2 antibodies; endogenous in cells; host or cells: HEK293 cell lysate", "T1 sequence (Q9GZT9 whole entry)": "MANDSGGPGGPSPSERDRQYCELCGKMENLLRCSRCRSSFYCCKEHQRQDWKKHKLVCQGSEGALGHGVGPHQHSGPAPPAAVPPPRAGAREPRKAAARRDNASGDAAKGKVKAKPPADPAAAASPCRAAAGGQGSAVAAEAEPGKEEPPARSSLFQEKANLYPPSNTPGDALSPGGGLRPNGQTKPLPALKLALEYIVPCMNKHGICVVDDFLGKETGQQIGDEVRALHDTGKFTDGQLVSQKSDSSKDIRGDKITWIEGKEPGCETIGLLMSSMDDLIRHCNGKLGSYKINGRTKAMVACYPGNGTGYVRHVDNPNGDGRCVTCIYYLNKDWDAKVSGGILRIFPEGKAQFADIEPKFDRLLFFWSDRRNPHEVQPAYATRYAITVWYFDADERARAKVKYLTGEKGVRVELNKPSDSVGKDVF", "test": "Cellular thermal shift assay (CETSA) in HEK293 cell lysates, PHD2", "type": "binding", "conditions": "3 μM", "procedure": "(§1) HEK293 cells were treated with vehicle DMSO (1% for 2 h), 1a (0.3, 1, 3, 6 and 9 μM for 2 h), VH298 (100 μM for 2 h), MG132 (20 μM for 3 h), or FG-4592 (100 μM for 2 h) before lysis. Cell lysates were collected and incubated with VHL antibody overnight at 4° C. The proteins were immunoprecipitated using agarose beads. The levels of hydroxy-HIF-1α co-precipitated with VHL were detected using a hydroxy-HIF-1α antibody, and then visualized using ECL Western Blotting Detection Reagent (GE Healthcare). (B) Cellular thermal shift assays to monitor cellular target engagement of VHL and HIF-1α. HEK293 cell lysates were treated with 1a (3 μM) at room temperature for 30 min and then heated at different temperature ranging from 48° C. to 68° C. for 5 min. The protein samples were collected and detected by Western blotting using either VHL or PHD2 antibodies. (C) Fluorescence-based protein thermal shift assay of VBC in the presence or absence of VH298 (100 μM) and complex 1a (100 μM). […] Data are expressed as means±SD (n=3 independent experiments for figures a and b, samples for figures c and e), P values were calculated using a two-sided t-test. *P<0.05, **P<0.01 vs. DMSO group.\n(§2) After incubating HEK293 cell lysates with complex 1a followed by heating to set temperatures, VHL and PHD2 levels in the soluble fraction were quantitated by Western blotting. […]"}, "[2]": {"target": "T2, human recombinant VHL:ElonginB:ElonginC (VBC) complex (Homo sapiens, UniProt P40337)", "T2 construct": "made in house", "T2 sequence (P40337 whole entry)": "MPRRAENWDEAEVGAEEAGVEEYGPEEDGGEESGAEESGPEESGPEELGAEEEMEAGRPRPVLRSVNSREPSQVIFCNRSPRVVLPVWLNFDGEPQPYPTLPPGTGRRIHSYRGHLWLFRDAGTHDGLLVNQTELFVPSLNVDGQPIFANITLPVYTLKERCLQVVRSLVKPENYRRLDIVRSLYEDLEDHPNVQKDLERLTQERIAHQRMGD", "T2 sequence (Q15370 whole entry partner)": "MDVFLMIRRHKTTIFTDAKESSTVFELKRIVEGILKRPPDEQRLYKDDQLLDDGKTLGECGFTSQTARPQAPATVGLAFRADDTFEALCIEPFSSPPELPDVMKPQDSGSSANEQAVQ", "T2 sequence (Q15369 whole entry partner)": "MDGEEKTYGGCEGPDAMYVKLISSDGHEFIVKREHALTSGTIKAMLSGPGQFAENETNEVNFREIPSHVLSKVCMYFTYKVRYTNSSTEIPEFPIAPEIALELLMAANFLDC", "test": "Fluorescence-based protein thermal shift assay (FTS) of VBC", "type": "binding", "conditions": "100 μM", "procedure": "as §1\n(§3) After incubating HEK293 cell lysates with complex 1a followed by heating to set temperatures, VHL and PHD2 levels in the soluble fraction were quantitated by Western blotting."}, "[3]": {"target": "T3, His-tagged recombinant VBC protein complex (Homo sapiens, UniProt P40337)", "T3 construct": "made in house", "T3 sequence (P40337 whole entry)": "as the sequence (P40337 whole entry) above", "T3 sequence (Q15370 whole entry partner)": "as the sequence (Q15370 whole entry partner) above", "T3 sequence (Q15369 whole entry partner)": "as the sequence (Q15369 whole entry partner) above", "test": "Biolayer interferometry (BLI)", "type": "binding", "conditions": "for Kd: 1:1 interaction, 0.78-12.5 μM", "procedure": "as §1, with “μM). (D) ITC titration of complex 1a (300 μM) into recombinant VHL protein (30 μM). ITC experiments were carried in a MicroCal PEAQ-ITC Isothermal Titration Calorimeter (Malvern Panalytical). […] (F) Biolayer interferometry (BLI) kinetic analysis of the interaction between complex 1a and VBC. VBC was surface-immobilized to Ni-NTA biosensors.” for “μM).”\nas §3"}, "[4]": {"system": "HIF-1α levels in A498 (VHL-null) cells", "test": "HIF-1α accumulation in VHL-null A498 cells", "type": "cell-based", "conditions": "1a 3 μM, VH298 100 μM, 2 h", "procedure": "FIG. 3 depicts the effect of complex 1a on HIF-1α target gene products in cellulo. (A) Effect of complex 1a on specific proteins (GLUT1, VEGF, and EPO) mediated by HIF-1α in HEK293 cells. HEK293 cells were treated with 1a for 2 h. Cell lysis were collected and analyzed by the Western blotting. (B) Complex 1a has no effect on HIF-1α accumulation in a VHL null cancer cell line. A498 (VHL-null), or HEK293 cells were treated with 1% DMSO, 1a (3 μM), VH298 (100 μM), and FG-4592 (100 μM) for 2 h before lysis. (C) Effect of complex 1a on EPO, GLUT1, and VEGF levels in HEK293 cells with or without HIF-1α knockdown. Left: The expression levels of EPO, GLUT1, and VEGF in HEK293 cells with or without knockdown HIF-1α in the presence or absence of 1a. Right: Densitometry analysis of EPO, GLUT1, and VEGF levels on the Western blot. HIF-1α siRNA [sense, 5′-[…]-3′ (SEQ ID NO:1), antisense, 5′-[…]-3′ (SEQ ID NO:2)]. Negative control (NC) siRNA [sense, 5′-[…]-3′ (SEQ ID NO:3), antisense, 5′-[…]-3′ (SEQ ID NO:4)]. Data are expressed as means±SD (n=3 independent experiments), P values were calculated using a two-sided t-test. #P<0.05, P<0.01 HIF-1α siRNA vs. NC siRNA, *P<0.05, **P<0.01 1a vs. vehicle/DMSO group, respectively. […]"}, "[5]": {"system": "EPO, GLUT1 and VEGF in HIF-1α knockdown HEK293 cells", "test": "HIF-1α knockdown assay in HEK293 cells", "type": "cell-based, Human", "conditions": "HIF-1α siRNA", "procedure": "FIG. 3 depicts the effect of complex 1a on HIF-1α target gene products in cellulo. (A) Effect of complex 1a on specific proteins (GLUT1, VEGF, and EPO) mediated by HIF-1α in HEK293 cells. HEK293 cells were treated with 1a for 2 h. Cell lysis were collected and analyzed by the Western blotting. (B) Complex 1a has no effect on HIF-1α accumulation in a VHL null cancer cell line. A498 (VHL-null), or HEK293 cells were treated with 1% DMSO, 1a (3 μM), VH298 (100 μM), and FG-4592 (100 μM) for 2 h before lysis. (C) Effect of complex 1a on EPO, GLUT1, and VEGF levels in HEK293 cells with or without HIF-1α knockdown. Left: The expression levels of EPO, GLUT1, and VEGF in HEK293 cells with or without knockdown HIF-1α in the presence or absence of 1a. Right: Densitometry analysis of EPO, GLUT1, and VEGF levels on the Western blot. HIF-1α siRNA [sense, 5′-[…]-3′ (SEQ ID NO:1), antisense, 5′-[…]-3′ (SEQ ID NO:2)]. Negative control (NC) siRNA [sense, 5′-[…]-3′ (SEQ ID NO:3), antisense, 5′-[…]-3′ (SEQ ID NO:4)]. Data are expressed as means±SD (n=3 independent experiments), P values were calculated using a two-sided t-test. #P<0.05, P<0.01 HIF-1α siRNA vs. NC siRNA, *P<0.05, **P<0.01 1a vs. vehicle/DMSO group, respectively.\nA knockdown assay was performed to further verify the on-target effect of complex 1a. EPO, GLUT1, and VEGF are target genes regulated by HIF-1α. […]"}, "[6]": {"system": "full-thickness skin wounds in streptozotocin-induced diabetic mice (STZ)", "test": "Skin wound model in STZ diabetic mice, intraperitoneal", "type": "in vivo", "conditions": "1.25 mg/kg i.p. every other day", "excerpt": "The mice were maintained for 3 days. […] All experiments complied with all relevant ethical regulations.\nMice were anesthetized by inhalation of 3% isoflurane."}, "[7]": {"test": "ICP-MS analysis of iridium in skin samples", "type": "in vivo", "conditions": "dosed STZ and HFD/STZ mice", "protocol": "STZ mice were obtained by a single injection of high-dose streptozotocin (150 mg/kg) (Supplementary FIG. 10a). HFD/STZ mice were generated by 8 weeks high-fat diet feeding, followed by low-dose streptozotocin injection for 7 days (40 mg/kg/day) (Supplementary FIG. 11a). 3 days after streptozotocin injection, STZ or HFD/STZ mice with fasting blood glucose levels between 15 and 28 mmol/L were considered as diabetic mice and used in wound healing experiments. STZ and HFD/STZ mice were intraperitoneally injected with either vehicle (PEG 400: distilled water=6:4, v/v) or 1.25 mg/kg complex 1a every other day for 8 days, respectively."}, "[8]": {"target": "VHL (Homo sapiens, UniProt P40337)", "sequence (P40337 whole entry)": "as the sequence (P40337 whole entry) above", "sequence (Q15370 whole entry partner)": "as the sequence (Q15370 whole entry partner) above", "sequence (Q15369 whole entry partner)": "as the sequence (Q15369 whole entry partner) above", "test": "Cellular thermal shift assay (CETSA) in HEK293 cell lysates, VHL", "type": "binding", "design": "monitor the target engagement of 1a in HEK293 cell lysates; endogenous in cells; host or cells: HEK293 cell lysate", "conditions": "3 μM, 30 min", "procedure": "as §1, §2"}},
  "note": "Where two headings read alike, the source gives them in different places.",
  "data": [
    {"smiles": "COc1cc[n+]2c3c1ccc1c(OC)cc[n+](c13)[Ir-3]213([c]2ccccc2-c2cccc[n+]21)[c]1ccccc1-c1cccc[n+]13.F[P-](F)(F)(F)(F)F", "note": "[1a]", "values": [
      {"measurement": "Thermal stabilization of PHD2 (CETSA)", "setting": "[1]", "result": "no appreciable effect on the thermal stabilization of PHD2"},
      {"measurement": "Shift of the melting curve of purified VBC (FTS)", "setting": "[2]", "result": "ca. 3.0 °C"},
      {"measurement": "koff (BLI)", "setting": "[3]", "result": 0.0352, "unit": "s⁻¹"},
      {"measurement": "kon (BLI)", "setting": "[3]", "result": 522, "unit": "M⁻¹ s⁻¹"},
      {"measurement": "Kd", "setting": "[3]; read-out: Kd (BLI, kinetic fit)", "result": "6.74 ± 0.19", "unit": "µM"},
      {"measurement": "Kd", "setting": "[3]; read-out: Kd (BLI, steady state fit)", "result": "5.8 ± 0.64", "unit": "µM"},
      {"measurement": "HIF-1α levels in A498 cells", "setting": "[4]", "result": "no increase in HIF-1α levels"},
      {"measurement": "Accumulation of EPO, GLUT1 and VEGF in HIF-1α knockdown cells compared with normal cells", "setting": "[5]", "result": "less able to increase the accumulation of EPO, GLUT1, and VEGF in HIF-1α knockdown cells"},
      {"measurement": "Rate of wound closure, STZ mice, 4 days", "setting": "[6]; 4 days post-injury", "result": 50, "unit": "%"},
      {"measurement": "Rate of wound closure, STZ mice, 8 days", "setting": "[6]; 8 days post-injury", "result": 76, "unit": "%"},
      {"measurement": "Iridium in skin samples (ICP-MS)", "setting": "[7]", "result": "confirmed the presence of iridium in skin samples"},
      {"measurement": "Shift in the VHL melting curve (CETSA)", "setting": "[8]", "result": "about 6 °C"}
    ]}
  ]
}
